This is an account of results in patent US20050100529A1, “Methods of using and compositions comprising immunomodulatory compounds for the treatment and management of asbestos-related diseases and disorders” (priority 2003, published 2005).

For data set [1], the system named is TNF-α. Kind of data set: Inhibition of TNF-α production following LPS-stimulation of human PBMC. The class given is cell-based. The conditions noted are these: for pIC50 / IC50: human PBMC, LPS-stimulated, in vitro, read-out: IC50 for inhibiting production of TNF-α following LPS-stimulation of PBMC; for IC50: same value in mass units. The text has this: (§1) In a specific embodiment, inhibitions of TNF-α production following LPS-stimulation of human PBMC and human whole blood by 3-(4-amino-1-oxo-1,3-dihydro-isoindol-2-yl)-piperidine-2,6-dione, 4-(amino)-2-(2,6-dioxo-(3-piperidyl))-isoindoline-1,3-dione or thalidomide were investigated in vitro.

The subject of data set [2] is TNF-α. Kind of data set: Inhibition of TNF-α production following LPS-stimulation of human whole blood. Type of data set: cell-based. The note with it: LPS-stimulated, in vitro, read-out: IC50 for inhibiting production of TNF-α following LPS-stimulation of human whole blood; for IC50: same value in mass units.
Description: as §1

In another data set the test system is IL1β. Briefly: LPS-stimulated production of IL1β by PBMC. The class given is cell-based.
A further data set relates to IL6. Briefly: LPS-stimulated production of IL6 by PBMC. The class given is cell-based.
The test system of the next data set is IL10. Kind of data set: LPS-stimulated production of IL10 by PBMC. The class given is cell-based.
A further data set deals with mesothelioma patients. Briefly: Clinical studies in unresectable or relapsed mesothelioma patients. Type of data set: in vivo, human. The conditions noted are these: 10 mg as a continuous oral daily dose. Here is the method: Clinical trials with the administration of an immunomodulatory compound in an amount of from about 1 mg to about 1,000 mg, from about 1 mg to about 500 mg, or from about 1 mg to about 250 mg per day are conducted in patients with asbestosis, malignant mesothelioma, or malignant pleural effusion mesothelioma syndrome. In a specific embodiment, patients receive about 1 mg to about 150 mg/day of 3-(4-amino-1-oxo-1,3-dihydro-isoindol-2-yl)-piperidine-2,6-dione alone or in combination with vinorelbine. Patients who experience clinical benefit are permitted to continue on treatment.
Other clinical studies are performed using 3-(4-amino-1-oxo-1,3-dihydro-isoindol-2-yl)-piperidine-2,6-dione in unresectable or relapsed mesothelioma patients that have not responded to conventional therapy. In one embodiment, 3-(4-amino-1-oxo-1,3-dihydro-isoindol-2-yl)-piperidine-2,6-dione is administered in an amount of about 1 mg to about 150 mg/day to the patients. Treatment with 10 mg as a continuous oral daily dose is well-tolerated.

For data set [3] the following is noted: crystalline polymorph of 3-(4-amino-1-oxo-1,3 dihydro-isoindol-2-yl)-piperidine-2,6-dione; cited from earlier work.
For data set [4] the following is noted: solvent systems, humidity or heating as worded; cited from earlier work.

Each structure is given as a SMILES string. pIC50: −log10 of the molar value.

The term pIC50 denotes −log10 of the IC50, conventionally taken in molar units. By IC50 is commonly meant the midpoint of a concentration-inhibition curve. As for `Nc1cccc2c1CN(C1CCC(=O)NC1=O)C2=O` (stereo not drawn) [3-(4-amino-1-oxo-1,3-dihydro-isoindol-2-yl)-piperidine-2,6-dione], in the data set on TNF-α [1], the “Effect on LPS-stimulated production of TNF-α by PBMC” value is “dose-dependent inhibition”, the pIC50 was ~7.00 and the IC50 is ~0.0259 mg/L. For the same compound, in the data set on TNF-α [2], the pIC50 was ~6.32 and the IC50 is ~0.104 mg/L. Further, the “Effect on LPS-stimulated production of IL1β by PBMC” value in the data set with IL1β is recorded as “dose-dependent inhibition”. Besides, the “Effect on LPS-stimulated production of IL6 by PBMC” value in the data set on IL6 was “dose-dependent inhibition”. In addition, the “Effect on production of the anti-inflammatory cytokine IL10” value with IL10 is “increased production”. Further, the Tolerability result with mesothelioma patients is reported as “well-tolerated”.
With `Nc1cccc2c1CN(C1CCC(=O)NC1=O)C2=O` (stereo not drawn) [Form C, 3-(4-amino-1-oxo-1,3 dihydro-isoindol-2-yl)-piperidene-2,6-dione], in data set [3], the Hygroscopicity entry is given as “not hygroscopic below about 85% RH”. Further, in data set [4], the “Stability / interconversion of the polymorphic form” value (“Stability / interconversion” below) was “can convert to Form B at higher relative humidities”.
For the compound `Nc1cccc2c1CN(C1CCC(=O)NC1=O)C2=O` (stereo not drawn) [Form D, 3-(4-amino-1-oxo-1,3 dihydro-isoindol-2-yl)-piperidene-2,6-dione], the Hygroscopicity result in data set [3] was “either weakly or not hygroscopic”. Further, the “Stability / interconversion” value in data set [4] was “convert to Form B when stressed at higher relative humidities”.
For the compound `Nc1cccc2c1CN(C1CCC(=O)NC1=O)C2=O` (stereo not drawn) [Form B, 3-(4-amino-1-oxo-1,3 dihydro-isoindol-2-yl)-piperidene-2,6-dione], the “Stability / interconversion” value in data set [4] is “converts to Form E in aqueous solvent systems”.
Regarding `Nc1cccc2c1CN(C1CCC(=O)NC1=O)C2=O` (stereo not drawn) [Form A, 3-(4-amino-1-oxo-1,3 dihydro-isoindol-2-yl)-piperidene-2,6-dione], the Hygroscopicity entry in data set [3] is given as “weakly or not hygroscopic”. For the same compound, the “Stability / interconversion” value in data set [4] is listed as “most thermodynamically stable anhydrous polymorph”.
As to `Nc1cccc2c1CN(C1CCC(=O)NC1=O)C2=O` (stereo not drawn) [Form E, 3-(4-amino-1-oxo-1,3 dihydro-isoindol-2-yl)-piperidene-2,6-dione], in data set [4], the “Stability / interconversion” value is on record as “In aqueous solvent systems, Form E appears to be the most stable form”.
In the case of `Nc1cccc2c1C(=O)N(C1CCC(=O)NC1=O)C2=O` (stereo not drawn) [4-(amino)-2-(2,6-dioxo(3-piperidyl))-isoindoline-1,3-dione], in the data set on TNF-α [1], the “Effect on LPS-stimulated production of TNF-α by PBMC” value was “dose-dependent inhibition”, the pIC50 was ~7.62 and the IC50 is ~0.00655 mg/L. Besides, in the data set with TNF-α [2], the pIC50 was ~7.60 and the IC50 is ~0.00683 mg/L. Further, in the data set with IL1β, the “Effect on LPS-stimulated production of IL1β by PBMC” value is “dose-dependent inhibition”. Besides, in the data set with IL6, the “Effect on LPS-stimulated production of IL6 by PBMC” value was “dose-dependent inhibition”. Besides, the “Effect on production of the anti-inflammatory cytokine IL10” value in the data set with IL10 is “increased production”.
Regarding `O=C1CCC(N2C(=O)c3ccccc3C2=O)C(=O)N1` (racemic) [Thalidomide, thalidomide, reference compound], in the data set with TNF-α [1], the pIC50 is ~3.71 and the IC50 is ~50.1 mg/L.
